Data taken from patent publication US12304912B2, “Fused bicyclic RAF inhibitors and methods for use thereof” (Jazz Pharmaceuticals Ireland Limited, priority 2020, dated 2025).
Like-named read-outs stand apart in the source and are kept apart here.

Columns and labels:
[1] = Plasma protein binding assay, mouse plasma (mPPB); type: in vitro ADME; details: 5 μM, equilibrium dialysis 4 hours at 37° C.
How it was run: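 Equilibrium dialysis of 5 μM compound in previously frozen human or mouse plasma against phosphate buffer, 4 h at 37 °C. Both chambers quantified by LC-MS/MS; % free = (1−((PC−PF)/PC))×100.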

WiDr cells = experiment: WiDr CellTiter-Glo 3D cell proliferation assay; type: cell-based; details: Homo sapiens, read-out: 3D WiDr pGI50 (converted)
[2] = tested on: constitutive ERK phosphorylation in HCT-116 cells; experiment: HCT-116 AlphaLISA SureFire pERK1/2 cellular assay; type: cell-based, human; details: Homo sapiens, read-out: pERK HCT116 (2 hr) Abs pIC50 (converted)
How it was run: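 Cells seeded overnight (30,000/well for 2 h, 15,000/well for 24 h), then dosed in 1% FBS medium with a 10-point series from 1 μM top, 1/3 log steps, for 2 or 24 h at 37 °C. Lysates read by AlphaLISA for Thr202/Tyr204 pERK1/2; absolute IC50 versus DMSO control.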

[3] = tested on: BRAF monomers in A375 cells; experiment: A375 AlphaLISA SureFire pERK1/2 cellular assay (monomer); type: cell-based; details: Homo sapiens, read-out: pERK A375 (1 hr) pIC50 (converted)
How it was run: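 BRAF^V600E A375 melanoma cells seeded at 30,000/well in DMEM with 10% FBS, dosed without medium exchange in a 10-point series from 10 μM at 1/2-log steps, 1 h at 37 °C. Phospho-ERK1/2 (Thr202/Tyr204) measured in lysates by AlphaLISA SureFire; absolute IC50 relative to DMSO control.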

Row | Compound | mPPB (% free) [1] | GI50 (WiDr cells; WiDr cells, 3D proliferation) | IC50 ([2]; HCT-116, HCT116 cells, 2 hr, Abs) | IC50 ([3]; A-375, A375 cells, 1 hr) | GI50 (WiDr cells; WiDr) | IC50 ([2]; HCT-116, 2 h) | IC50 ([3]; A-375, 1 h)
1 | O=C(Nc1cc(Oc2ccc3c(c2)CC(c2nc(-c4ccc(F)cc4)c[nH]2)CO3)ccn1)C1CC1 (centres unmarked) [Compound 155, N-[4-[3-[4-(4-fluorophenyl)-1H-imidazol-2-yl]chroman-6-yl]oxy-2-pyridyl]cyclopropanecarboxamide] | 0.1 % free | 631 nM | 60.3 nM | 117 nM |  |  | 
2 | O=C(Nc1cc(Oc2ccc3c(c2)CC(c2nc(-c4ccccc4)c[nH]2)CO3)ncn1)C1CC1 (centres unmarked) [Compound 151, N-[6-[3-(4-phenyl-1H-imidazol-2-yl)chroman-6-yl]oxypyrimidin-4-yl]cyclopropanecarboxamide] | <0.1 % free |  |  |  | 1150 nM | 178 nM | 347 nM
